Measurements taken from the OPERA property sets (Mansouri et al. 2018).

Conditions: for log10 BCF / log10 biotransformation half-life (days): fish

| SMILES | melting point [°C] | boiling point [°C] | other results |
| --- | --- | --- | --- |
| Cc1c(O)ccc(O)c1C | 224 | – | – |
| C=CCO | -129 | 97 | log10 Henry constant (atm·m³/mol): -5.3; log10 vapour pressure (mmHg): 1.42; ready biodegradability: readily biodegradable |
| CC1CCC(=O)CC1 | -40.6 | 170 | log10 vapour pressure (mmHg): 0.176 |
| C[C@@H]1N[C@@H]2CCCCCCCC(=O)O[C@H]3CC[C@@H](CCCCCCCC(=O)O[C@H]1CC2)N[C@H]3C | 121 | – | – |
| CCCCCC=CC=CC(=O)O | 49.5 | – | – |
| CC(=O)Oc1ccccc1C(=O)Oc1ccccc1C(=O)O | 159 | – | – |
| CCNC(=O)C(C)OC(=O)Nc1ccccc1 (stereo not given) | 119 | – | – |
| O=S(=O)(O)c1ccc(O)c2ccccc12 | – | – | log10 BCF: 1.11 |
| c1ccc2c(c1)ccc1ccccc12 | 99.2 | 340 | log10 Henry constant (atm·m³/mol): -4.37; log10 Koa: 7.57; log10 Koc (L/kg): 4.35; log10 biodegradation half-life (days): 1.62; log10 vapour pressure (mmHg): -3.92; ready biodegradability: readily biodegradable; log10 BCF: 3.4; log10 biotransformation half-life (days): 0.7 |
| Cc1cccc(C)c1I | 11.2 | 230 | – |
| COC(=O)c1ccccn1 | 18.7 | – | – |
| CCCOc1ccc([N+](=O)[O-])cc1NC(C)=O | 102 | – | – |
| CCCCCCCCC(=O)CCCCCCCC | 53 | 252 | – |
| CCOC(=O)CC(C(C)=O)C(=O)OCC (stereo not given) | – | 255 | – |
| CC(C)OC(=O)C(Cl)Cl | – | 164 | – |
| CCc1cc(C(N)=S)ccn1 | 163 | – | – |
| O=C(OC(=O)C(c1ccccc1)c1ccccc1)C(c1ccccc1)c1ccccc1 | 98 | – | – |
| Cc1cnc(C)[nH]1 | 92 | 267 | – |
| FCCCCCl | – | 115 | – |
| Oc1cccc2c1CCCC2 | 70 | 266 | – |
| CCCCCCCCCCCCCCCCCC(=O)N(CCO)CCO | – | – | ready biodegradability: readily biodegradable |
| O=C(O)c1cc(O)cc(C(=O)O)c1 | 293 | – | – |

| SMILES | melting point [°C] | boiling point [°C] | other results |
| --- | --- | --- | --- |
| Cc1ccc2c(c1)CC(C)CC2 (stereo not given) | – | 237 | – |
| CC(=O)NCCCCCC(=O)O | 104 | – | – |
| Nc1ccc(S(=O)(=O)Nc2cnc3ccccc3n2)cc1 | 248 | – | – |
| Brc1cccc2ccccc12 | -1.8 | 281 | log10 vapour pressure (mmHg): -2.01 |
| O=C(O)CCCCCCCCCCC(=O)O | 128 | – | – |
| Cc1ccc2c(Cl)cc(Cl)c(O)c2n1 | 114 | – | – |
| Clc1cccc(-c2c(Cl)ccc(Cl)c2Cl)c1 | – | – | log10 biotransformation half-life (days): 2.47 |
| CCC(Br)C(=O)OC (stereo not given) | – | 168 | – |
| ClC(Cl)(Cl)c1ccc(C(Cl)(Cl)Cl)cc1 | 109 | – | – |
| NC(=O)c1ccccc1O | 142 | – | – |
| CCOC(=O)CC(SP(=S)(OC)OC)C(=O)OCC (stereo not given) | 2.8 | – | log10 Henry constant (atm·m³/mol): -8.31; log10 Koc (L/kg): 2.36; log10 vapour pressure (mmHg): -5.47; ready biodegradability: not readily biodegradable; log10 BCF: 1.52; log10 biotransformation half-life (days): 0.29 |
| c1coc(CNc2[nH]cnc3ncnc2-3)c1 | 266 | – | – |
| CCCCOc1ccc(/N=N/c2ccc(N)nc2N)cn1 | 129 | – | – |
| COc1cc(Cl)ccc1O | 16.5 | 241 | – |
| CCC(O)CN (stereo not given) | 3 | 169 | – |
| O=C1c2ccccc2C(=O)C1(CN1CCOCC1)c1ccccc1 | 88 | – | – |
| Clc1ccc2c(Cl)c(Cl)cc(Cl)c2c1 | – | – | log10 Koa: 8.08 |
| CC(=O)CC(=O)OC(C)C | -27.3 | 186 | – |
| OCCCF | – | 128 | – |
| Oc1ccc(NCc2ccccc2)cc1 | 88 | – | – |
| Clc1cc(Cl)cc(Cl)c1 | 63.5 | 208 | log10 Henry constant (atm·m³/mol): -2.72; log10 Koa: 4.85; log10 Koc (L/kg): 2.85; log10 vapour pressure (mmHg): -0.62; ready biodegradability: not readily biodegradable; log10 BCF: 2.97; log10 biotransformation half-life (days): 1.19 |
| CCCCCCCCCCCCCCC(=O)O | 52.3 | 339 | log10 vapour pressure (mmHg): -6.36 |

| SMILES | melting point [°C] | boiling point [°C] | other results |
| --- | --- | --- | --- |
| Nc1c(Cl)c(Cl)nc(C(=O)O)c1Cl | 218 | – | log10 Koc (L/kg): 1.3; log10 vapour pressure (mmHg): -10.1; ready biodegradability: not readily biodegradable |
| CCP(CC)CC | -88 | 129 | – |
| CCOC(CCCN)OCC | – | 196 | – |
| Cc1cccc(Cl)c1Cl | 6 | 208 | – |
| Brc1ccc2c3c(cccc13)CC2 | 52 | 335 | – |
| Cc1cc(C)nc(Nc2ccccc2)n1 | 96.3 | – | log10 vapour pressure (mmHg): -4.78 |
| CC(=O)Oc1cc(C)c(OC(C)=O)c2ccccc12 | 113 | – | – |
| ClC1CC2CCC1C2 (stereo not given) | -5 | 162 | – |
| NC(=O)C(N)=O | – | – | log10 vapour pressure (mmHg): -7.2 |
| C=C(CC)C(=O)c1ccc(OCC(=O)O)c(Cl)c1Cl | 122 | – | – |
| Fc1c(F)c(F)c(Sc2c(F)c(F)c(F)c(F)c2F)c(F)c1F | 87 | – | – |
| Nc1ccccc1Cl | -14 | 209 | log10 vapour pressure (mmHg): -0.69; ready biodegradability: not readily biodegradable; log10 BCF: 0.95; log10 biotransformation half-life (days): -0.61 |
| O=c1c(O)c(-c2ccc(O)c(O)c2)oc2cc(O)ccc12 | 330 | – | – |
| CC(C)(Cl)Cl | -33.8 | 69.3 | – |
| FC(F)(Cl)CBr | -76 | 68.4 | – |
| CCCCCCOC(=O)c1ccccc1C(=O)OCCCCCC | -58 | – | log10 Koc (L/kg): 4.72; log10 vapour pressure (mmHg): -4.85 |
| CC(C)CCS | – | 120 | log10 vapour pressure (mmHg): 1.31 |
| Clc1ccccc1NNc1ccccc1Cl | – | – | ready biodegradability: not readily biodegradable; log10 BCF: 3.66 |
| CCC(=O)OC/C=C(\C)CCC=C(C)C | – | 253 | – |
| Cc1ccc(C=O)c(O)c1 | 60.5 | 223 | – |
| NCCC(=O)O | – | – | ready biodegradability: readily biodegradable |
| NC(N)=O | – | – | log10 Koc (L/kg): 0.15; log10 vapour pressure (mmHg): -4.92; ready biodegradability: readily biodegradable |

| SMILES | melting point [°C] | boiling point [°C] | other results |
| --- | --- | --- | --- |
| C=CCN(CC=C)c1c(C)cc(OC(=O)NC)cc1C | 67 | – | – |
| CCOP(=S)(OCC)Oc1ccc(S(C)=O)cc1 (stereo not given) | – | – | log10 Koc (L/kg): 2.52; log10 vapour pressure (mmHg): -4.3 |
| COOC | – | 14 | – |
| CC(=O)O[C@]1(C(C)=O)CC[C@H]2[C@@H]3C=C(C)C4=CC(=O)CC[C@]4(C)[C@H]3CC[C@@]21C | 214 | – | – |
| C=C(C)[C@H]1Cc2c(cc(O)c3c2O[C@@H]2COc4cc(OC)c(OC)cc4[C@@H]2C3=O)O1 | 195 | – | – |
| CCOP(=O)(Sc1ccccc1)Sc1ccccc1 | – | – | log10 vapour pressure (mmHg): -6.57; log10 BCF: 1.51; log10 biotransformation half-life (days): -1.04 |
| COC(=O)C(C)C | -84.7 | 92.5 | log10 vapour pressure (mmHg): 1.69 |
| Cc1cc(C)c(C)c(C)c1 | -23.7 | 198 | log10 biodegradation half-life (days): 0.477; log10 vapour pressure (mmHg): -0.303 |
| Cc1ccc(C)c(N)c1 | 15.5 | 214 | log10 vapour pressure (mmHg): -0.824; ready biodegradability: not readily biodegradable; log10 BCF: 0.58; log10 biotransformation half-life (days): -0.99 |
| CC(=O)O[C@]1(C(C)=O)CC[C@H]2[C@@H]3C[C@H](C)C4=CC(=O)C=C[C@]4(C)[C@@]3(F)[C@@H](O)C[C@@]21C | 298 | – | – |
| OC1CCCCCCCCC1 | 40.5 | – | – |
| c1ccc(-c2oc(-c3ccccc3)c(-c3ccccc3)c2-c2ccccc2)cc1 | 175 | – | – |
| O=c1[nH]c(=O)n([C@H]2C[C@H](O)[C@@H](CO)O2)cc1C(F)(F)F | 188 | – | – |
| FC(Cl)=C(Cl)C(F)(F)F | -137 | 47.3 | – |
| NCCCO | 11 | 188 | log10 vapour pressure (mmHg): -1.11 |
| C[Si](C)(Cl)C(Cl)Cl | -48 | 149 | – |
| CCC(C)(O)CCl (stereo not given) | – | 151 | – |
| COc1cc(Cl)c(Cl)c(Cl)c1Cl | 84 | – | log10 BCF: 3.67 |
| Cc1ccc2cc3c(ccc4ccccc43)c3c2c1CC3 | 180 | – | log10 Koc (L/kg): 6.1; log10 vapour pressure (mmHg): -7.37; ready biodegradability: not readily biodegradable |
| C=CC1CCC(O)C(O)C1 (stereo not given) | – | – | ready biodegradability: not readily biodegradable |
| CC(=O)Oc1ccc(OC(C)=O)c(OC(C)=O)c1 | – | 300 | – |
